Experimental data from paper PMC4163382, “Symbiotic Plant Peptides Eliminate Candida albicans Both In Vitro and in an Epithelial Infection Model and Inhibit the Proliferation of Immortalized Human Cells” (BioMed Research International, 2014).

Legend:
[1] = system: PK E6/E7 vaginal epithelial cells; test: MTT assay, cytotoxicity on human epithelial cells; type: cell-based; conditions: MTT assay, PBgluc, 12.5 to 100 μg/mL, for cationic peptides antifungal concentration range (<25 μg/mL)
Procedure: (§1) The immortalized human vaginal epithelial cell line PK E6/E7 [15] was cultured in serum-free CKM supplemented with 0.005 μg/mL recombinant epidermal growth factor, 50 μg/mL bovine pituitary extract, L-glutamine, and antibiotic/antimycotic solution (Life Technologies) in a CO2 thermostat at 37°C [16]. Cells at 60–70% confluence were used in subsequent experiments.
MTT Assay. PK E6/E7 vaginal epithelial cells were seeded in the wells of a 96-well plate at a density of 1 × 10^4 cells per well in a final volume of 100 μL. CKM was then aspirated and 100 μL of the appropriate peptide diluted in PBgluc was added. After 3 hours of incubation at 37°C, the peptide solution was removed, and the cells were let to regenerate in CKM for 24 hours. Then 5 mg/mL 3-[4,5-dimethylthiazol-2-yl]-2,5-diphenyltetrazolium bromide (MTT) was added to each well and the plate was placed to 37°C for 4 hours. The amount of formazan formed by the activity of the mitochondrial succinate dehydrogenase of living cells was measured by using a microtiter plate reader (FLUOstar OPTIMA) at the wavelength of 560 nm.
10 μg/mL of primycin, a macrolide lactone antibiotic complex that rapidly kills PK cells, was used as a control for cytotoxicity in both assays.
(§2) MTT assays and impedance measurements were performed in at least four technical parallels and two biological replicates; all the data are presented as mean ± standard deviation. Significance was calculated with Newman-Keuls post hoc test using the GraphPad Prism version 5 for Windows and a probability (P) value of less than 0.05 was considered significant.

[2] = system: PK E6/E7 vaginal epithelial cells infected with C. albicans WO-1; test: Vaginal epithelial cell - C. albicans coculture (RTCA); type: cell-based, human; conditions: PK E6/E7 + C. albicans WO-1, MOI of 5, 3 hours coculture then peptide 3 hours in PBgluc at both 25 and 50 μg/mL, RTCA at 40 hours
Procedure: PK E6/E7 cells were seeded in 96-well E-plates as described above for RTCA. On the next day, an overnight culture of C. albicans WO-1 was diluted to OD = 1 and let to grow until OD = 1.5–2. The fungal cell suspension was diluted in antibiotic/antimycotic-free CKM and was added to the human cells with a multiplicity of infection (MOI) of 5. After 3 hours of coculture at 37°C, CKM medium was replaced with NCR peptides in PBgluc. After 3 hours of incubation, peptides were removed and 200 μL of fresh antibiotic/antimycotic-free CKM was added. Subsequent measurements were performed as described above.
as §2

[3] = system: PK E6/E7 vaginal epithelial cells; test: Real-Time Cell Analysis (RTCA), proliferation of human epithelial cells; type: cell-based; conditions: 3 hours treatment in PBgluc, cell index 40 hours after treatment
Procedure: as §1
Real-Time Cell Analysis (RTCA). 7 × 10^4 PK E6/E7 cells per well were seeded in 96-well E-plates (ACEA Biosciences) in which the bottoms of the wells were covered with microelectrodes and the epithelial cells were allowed to attach to the bottom of the wells for 20 hours. CKM was then aspirated and the cells were treated with 100 μL of the peptides diluted in PBgluc. […] The cell index at the beginning of the measurement after treatment was considered as 100% and values measured at 40 hours were expressed (see Supplementary Figure 1in Supplementary Materials available online at http://dx.doi.org/10.1155/2014/320796). […]
as §2

C. albicans WO-1 cells = test: Cell permeability assay (calcein release); type: cell-based, Candida albicans; conditions: calcein-loaded C. albicans WO-1, 10 mM potassium phosphate buffer pH 7.0, peptide 50 μg/mL, fluorescence 485/530 nm
Procedure: Cell permeability was monitored by the release of the intracellularly accumulated dye calcein. Overnight C. albicans WO-1 cells were washed twice with and resuspended in 10 mM potassium phosphate buffer (pH = 7.0) at a concentration of 10^7 cells mL^−1. Cells were loaded with acetomethoxy-calcein at a final concentration of 5 μM for 2 hours at room temperature. Cells were washed three times to remove the extracellular dye and then 100 μL of the suspension was transferred to FIA black 96-well plates. NCR peptides were then added at a concentration of 50 mg/L, and the release of calcein (formed by the cells' esterases) was measured by its fluorescence in a microtiter plate reader (FLUOstar OPTIMA) at excitation and emission wavelengths of 485 nm and 530 nm, respectively. Calcein efflux was calculated as previously reported.

## AFERTETRMLTIPCTSDANCPKVISPCHTKCFDGFCGWYIEGSYEGP [NCR001, anionic chemically synthesized mature NCR peptide of Medicago truncatula]
[1]
  Effect on viability of the human cells: no negative effect
[2]
  Prevention of C. albicans induced epithelial cell death: unable to prevent vaginal epithelial cell death
[3]
  Effect on proliferation of the human cells: no negative effect
C. albicans WO-1 cells
  Calcein (dye) efflux: no calcein release
